Values quoted from earlier work in PMC7579232 (Current Clinical Pharmacology, 2020).

Key:
[1] = rats
[2] = rabbits

In the case of NC(=O)N1c2ccccc2C=Cc2ccccc21 [carbamazepine], the “Effect of pomegranate juice on elimination half-life” value [1] is given as “does not affect” and the “Increase of AUC by pomegranate juice” value ([1]; oral carbamazepine with pomegranate juice) is given as “approximately 1.5 fold”.

For C=CC[C@@H]1/C=C(\C)C[C@H](C)C[C@H](OC)[C@H]2O[C@@](O)(C(=O)C(=O)N3CCCC[C@H]3C(=O)O[C@H](/C(C)=C/[C@@H]3CC[C@@H](O)[C@H](OC)C3)[C@H](C)[C@@H](O)CC1=O)[C@H](C)C[C@@H]2OC [tacrolimus], the “Effect of co-administered pomegranate dietary products on drug concentration” value (a heart transplant patient) is listed as “increased”.

In the case of Cc1ncc2n1-c1ccc(Cl)cc1C(c1ccccc1F)=NC2 [midazolam], the “Effect of pomegranate juice on Cmax and AUC” value (oral midazolam, healthy volunteers) is given as “did not affect”.

For CCOC(=O)C1=C(C)NC(C)=C(C(=O)OC)C1c1cccc([N+](=O)[O-])c1 (stereo not drawn) [nitrendipine], the “Increase of area under the concentration-time curve by pomegranate juice” value [2] is listed as 2.03 fold and the “Increase of peak plasma concentration by pomegranate juice” value [2] is listed as 2 fold.
